Test results as given in patent US9918915B2, “Personal care compositions providing enhanced cooling sensation” (THE PROCTER & GAMBLE COMPANY, priority 2007, dated 2018).
Where “and” joins values, the source holds several entries; their conditions need not be identical. Equal values may be shown once. One block for each compound: values may come before it.

Assays:
panelists = test: Sensory evaluation of cooling sensation after brushing with coolant dentifrice followed by aqueous rinse with or without calcium; type: in vivo, human; set-up: key to Cooling Sensation Score: 0 = no cooling, 60 = intense cooling; 7.5 = definite cooling; settings: for Cooling Sensation Score: 0-60 scale
Protocol: Sensory evaluation studies of coolant activity were conducted using a methodology patterned after the techniques described in M. C. Meilgaard, et al., Sensory Evaluation Techniques, 4th Ed. (2007). In one study, a panel of 11 trained sensory experts evaluated cooling sensation experienced after brushing with a dentifrice containing coolant(s) followed by rinsing with an aqueous rinse containing a calcium ion source. Panelists brushed teeth with 1.5 grams of a test dentifrice (containing coolant) or control (no coolant) and then expectorated. After brush expectoration, panelists evaluated cooling intensity, assigning a number between 0 (no cooling) to 60 (intense cooling). Panelists then rinsed mouth with 15 ml. of an aqueous rinse (with or without calcium) and expectorated. After rinse expectoration, panelists evaluated cooling intensity according to the same 0 to 60 scale. Evaluations were conducted at 5, 15, 30, 45, 60 minute, etc. time points. At each evaluation, panelists were instructed to breathe in through pursed lips and evaluate overall cooling sensation. In this test, a numerical score of 7.5 indicates meaningful or definite cooling.

human TRPM8 = human TRPM8 (Homo sapiens, UniProt Q7Z2W7); test: FLIPR intracellular calcium flux (Fluo-4) in HEK cells stably transfected with human TRPM8; settings: HEK cells with human TRPM8
Sequence of human TRPM8 (Q7Z2W7 whole entry): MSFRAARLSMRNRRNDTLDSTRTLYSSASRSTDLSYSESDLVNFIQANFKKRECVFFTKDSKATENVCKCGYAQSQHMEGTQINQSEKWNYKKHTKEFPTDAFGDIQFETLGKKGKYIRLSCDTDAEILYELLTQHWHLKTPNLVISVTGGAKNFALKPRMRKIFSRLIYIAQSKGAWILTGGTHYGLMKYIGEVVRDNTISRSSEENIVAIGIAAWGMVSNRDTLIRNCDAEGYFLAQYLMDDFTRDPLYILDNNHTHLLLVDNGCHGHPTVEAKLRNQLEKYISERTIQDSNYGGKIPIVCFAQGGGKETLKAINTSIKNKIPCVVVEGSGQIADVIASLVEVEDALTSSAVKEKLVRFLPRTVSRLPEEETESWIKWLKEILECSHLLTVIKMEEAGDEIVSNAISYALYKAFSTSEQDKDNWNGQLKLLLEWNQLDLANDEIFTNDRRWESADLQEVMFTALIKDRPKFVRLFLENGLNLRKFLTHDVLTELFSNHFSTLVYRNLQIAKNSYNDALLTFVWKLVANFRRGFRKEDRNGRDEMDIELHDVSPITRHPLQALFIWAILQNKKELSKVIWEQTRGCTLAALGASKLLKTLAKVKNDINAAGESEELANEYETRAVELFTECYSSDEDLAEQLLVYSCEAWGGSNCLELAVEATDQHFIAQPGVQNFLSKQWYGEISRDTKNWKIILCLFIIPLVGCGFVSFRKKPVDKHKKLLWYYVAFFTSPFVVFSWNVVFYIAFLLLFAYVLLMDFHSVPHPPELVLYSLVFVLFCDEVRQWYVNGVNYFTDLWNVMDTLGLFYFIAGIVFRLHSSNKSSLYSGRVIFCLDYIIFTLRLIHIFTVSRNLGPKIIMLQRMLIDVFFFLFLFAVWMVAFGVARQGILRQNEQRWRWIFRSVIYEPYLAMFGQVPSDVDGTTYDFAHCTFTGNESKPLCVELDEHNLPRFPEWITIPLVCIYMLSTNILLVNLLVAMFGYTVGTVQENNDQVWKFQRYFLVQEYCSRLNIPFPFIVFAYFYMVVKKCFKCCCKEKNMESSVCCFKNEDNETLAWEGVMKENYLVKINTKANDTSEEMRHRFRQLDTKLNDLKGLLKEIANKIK

[1] = concentration where the cooling effect could be clearly recognized; cited from earlier work

Sensation described by panelists (panelists; particularly when used at higher levels): “burning” sensation | Average Fluorescence (n = 3) (human TRPM8; 6.25 uM G-180 alone, Fluo-4): 14901.88 and 17511.73 and 17474.37 | Activation of the TRPM8 receptor (calcium ion flux vs. control) (human TRPM8; 6.25 uM): activated the TRPM8 receptor
Compound: CC1CCC(C(C)C)C(C(=O)Nc2ccc(CC#N)cc2)C1 (stereo not drawn) [Composition G-180, N-(4-cyanomethylphenyl)-ρ-menthanecarboxamide]
Cooling Sensation Score (panelists; 75 ppm coolant in paste, rinse Ca+2 0 ppm, 0 min.): 21.1 | Cooling Sensation Score (panelists; 75 ppm coolant in paste, rinse Ca+2 0 ppm, 5 min.): 23.7 | Cooling Sensation Score (panelists; 75 ppm coolant in paste, rinse Ca+2 0 ppm, 15 min.): 22.9 | Cooling Sensation Score (panelists; 75 ppm coolant in paste, rinse Ca+2 0 ppm, 30 min.): 15.0 | Cooling Sensation Score (panelists; 75 ppm coolant in paste, rinse Ca+2 0 ppm, 45 min.): 11.0 | Cooling Sensation Score (panelists; 75 ppm coolant in paste, rinse Ca+2 0 ppm, 60 min.): 5.8 | Cooling Sensation Score (panelists; 75 ppm coolant in paste, rinse Ca+2 271 ppm, 0 min.): 17.5 | Cooling Sensation Score (panelists; 75 ppm coolant in paste, rinse Ca+2 271 ppm, 5 min.): 18.3 | Cooling Sensation Score (panelists; 75 ppm coolant in paste, rinse Ca+2 271 ppm, 15 min.): 20.7 | Cooling Sensation Score (panelists; 75 ppm coolant in paste, rinse Ca+2 271 ppm, 30 min.): 16.8 | Cooling Sensation Score (panelists; 75 ppm coolant in paste, rinse Ca+2 271 ppm, 45 min.): 13.3 | Cooling Sensation Score (panelists; 75 ppm coolant in paste, rinse Ca+2 271 ppm, 60 min.): 8.4 | Cooling Sensation Score (panelists; 75 ppm coolant in paste, rinse Ca+2 542 ppm, 0 min.): 18.8 | Cooling Sensation Score (panelists; 75 ppm coolant in paste, rinse Ca+2 542 ppm, 5 min.): 25.0 | Cooling Sensation Score (panelists; 75 ppm coolant in paste, rinse Ca+2 542 ppm, 15 min.): 29.2 | Cooling Sensation Score (panelists; 75 ppm coolant in paste, rinse Ca+2 542 ppm, 30 min.): 24.4 | Cooling Sensation Score (panelists; 75 ppm coolant in paste, rinse Ca+2 542 ppm, 45 min.): 18.6 | Cooling Sensation Score (panelists; 75 ppm coolant in paste, rinse Ca+2 542 ppm, 60 min.): 14.1 | Cooling Sensation Score (panelists; 150 ppm coolant in paste, rinse Ca+2 0 ppm, 0 min.): 16.7 | Cooling Sensation Score (panelists; 150 ppm coolant in paste, rinse Ca+2 0 ppm, 5 min.): 16.0 | Cooling Sensation Score (panelists; 150 ppm coolant in paste, rinse Ca+2 0 ppm, 15 min.): 25.7 | Cooling Sensation Score (panelists; 150 ppm coolant in paste, rinse Ca+2 0 ppm, 30 min.): 19.5 | Cooling Sensation Score (panelists; 150 ppm coolant in paste, rinse Ca+2 0 ppm, 45 min.): 10.0 | Cooling Sensation Score (panelists; 150 ppm coolant in paste, rinse Ca+2 0 ppm, 60 min.): 1.5 | Cooling Sensation Score (panelists; 150 ppm coolant in paste, rinse Ca+2 271 ppm, 0 min.): 12.1 | Cooling Sensation Score (panelists; 150 ppm coolant in paste, rinse Ca+2 271 ppm, 5 min.): 22.5 | Cooling Sensation Score (panelists; 150 ppm coolant in paste, rinse Ca+2 271 ppm, 15 min.): 26.0 | Cooling Sensation Score (panelists; 150 ppm coolant in paste, rinse Ca+2 271 ppm, 30 min.): 17.1 | Cooling Sensation Score (panelists; 150 ppm coolant in paste, rinse Ca+2 271 ppm, 45 min.): 11.2 | Cooling Sensation Score (panelists; 150 ppm coolant in paste, rinse Ca+2 271 ppm, 60 min.): 0 | Cooling Sensation Score (panelists; 150 ppm coolant in paste, rinse Ca+2 542 ppm, 0 min.): 15.1 | Cooling Sensation Score (panelists; 150 ppm coolant in paste, rinse Ca+2 542 ppm, 5 min.): 21.9 | Cooling Sensation Score (panelists; 150 ppm coolant in paste, rinse Ca+2 542 ppm, 15 min.): 27.2 | Cooling Sensation Score (panelists; 150 ppm coolant in paste, rinse Ca+2 542 ppm, 30 min.): 24.8 | Cooling Sensation Score (panelists; 150 ppm coolant in paste, rinse Ca+2 542 ppm, 45 min.): 18.2 | Cooling Sensation Score (panelists; 150 ppm coolant in paste, rinse Ca+2 542 ppm, 60 min.): 8.0 | Potentiating effect of calcium ions on cooling intensity and duration (panelists; at the levels of coolant and calcium used): particularly evident | Duration of cooling with calcium (panelists; dentifrice followed by calcium rinse): up to 60 minutes

Compound: CC1CCC(C(C)C)C(O)C1 (stereo not drawn) [Menthol, menthol]
Cooling Sensation Score (panelists; 1500 ppm coolant in paste, rinse Ca+2 542 ppm, 0 min.): 18.0 | Cooling Sensation Score (panelists; 1500 ppm coolant in paste, rinse Ca+2 542 ppm, 5 min.): 17.5 | Cooling Sensation Score (panelists; 1500 ppm coolant in paste, rinse Ca+2 542 ppm, 15 min.): 4.4 | Cooling Sensation Score (panelists; 1500 ppm coolant in paste, rinse Ca+2 542 ppm, 30 min.): 0 | Cooling Sensation Score (panelists; 1500 ppm coolant in paste, rinse Ca+2 542 ppm, 45 min.): 0 | Cooling Sensation Score (panelists; 1500 ppm coolant in paste, rinse Ca+2 542 ppm, 60 min.): 0 | Calcium enhancing effect on cooling (panelists; 1500 ppm level of coolant in dentifrice): calcium enhancing effect was not observed | Cooling threshold [1]: about 800 ppb

Compound: CC(C)[C@@H]1CC[C@@H](C)C[C@@H]1O [d-neomenthol]
Cooling threshold [1]: about 25,000 ppb

Compound: CC(C)[C@H]1CC[C@H](C)C[C@H]1O [l-neomenthol]
Cooling threshold [1]: about 3,000 ppb
